Earlier results as cited in publication PMC9576820 (The Journal of membrane biology, 2022).

Tested on: host cells, proteases, serum proteins

## RRGWALRLVLAY [ARVA]
  inhibition of antimicrobial activity by host factors: potently inhibited by host cell binding, proteolysis, and serum protein binding
